In patent US8987285B2, “Pharmaceutical compositions, dosage forms and new forms of the compound of formula (I), and methods of use thereof” (Portola Pharmaceuticals, Inc., priority 2010, dated 2015):

Tests used:
Assay type in all cases: physicochemical
[1] = Saturation solubility, shake-flask with UV quantification; conditions: for solubility at 72 h: thermodynamic from solid
Description: The FaSSIF and FeSSIF solutions were prepared using Phares SIF powder according to the formulation instructions and the SGF solution was prepared using the guidelines provided. […] The pH and temperature of the supernatant were measured on a SiriusT3 instrument.

[2] = Super-saturation measurement (CheqSol): intrinsic and kinetic solubility; conditions: for ratio super saturation: kinetic solubility divided by intrinsic solubility
From the text: Anal. Chem. 2005, 77(4), 983-990; 2—Box, K J. Völgyi, G. Baka, E. Stuart, M. Takács-Novák, K. Corner, J E A. Equilibrium vs. kinetic measurements of aqueous solubility, and the ability of compounds to supersaturate in solution—a validation study. J. Pharm. Sci. 2006, 95, 1298-1307; 3—Sköld, C. Winiwarter, S. Johan Wernevik, J. Bergström, F. Engström, L. Allen, R. Box, K. Corner, J. Mole, J. Hallberg, A. Lennernäs, H. Lundstedt, T. Ungell, A-L. Karlén, A. Presentation of a Structurally Diverse and Commercially Available Drug Data Set for Correlation and Benchmarking Studies. J. Med. Chem. 2006, 49(23), 6660-6671;
. Med. Chem.; 2007, 50 (5), 979-983; 5—Llinás, A. Box, K J. Burley, J C. Glen, R C. Goodman, J M. J. A new method for the reproducible generation of polymorphs: two forms of Sulindac with very different solubilities. […] 6—Box K et al, Using Measured pKa, Log P and Solubility to Investigate Supersaturation and Predict BCS Class, Current Drug Metabolism, 2008, 9, 869-878]
1—kinetic solubility is the concentration of a compound in solution at the time when an induced precipitate first appears
2—equilibrium solubility (also called thermodynamic solubility) is the concentration of compound in a saturated solution when excess solid is present, and solution and solid are at equilibrium
3—intrinsic solubility [Hörter, D.; Dressman, J. B. Adv. Drug Deliv. Rev., 1997, 25, 3-14] is the equilibrium solubility of the free acid or base form of an ionisable compound at a pH where it is fully un-ionized
The super-saturation ratio is calculated as the ratio of kinetic solubility divided by the Intrinsic Solubility.

[3] = Supersaturation stabilization experiment with PVP K90 (CheqSol)
From the text: Typically the higher the super saturation, the faster and the more extensive is the precipitation which occurs. On the other hand, higher bioavailability may be achieved by using excipients which interact with the drug in the super-saturated state. In this super-saturated state, precipitation is inhibited and/or delayed, thus leading to higher luminal drug concentrations in vivo of the dissolved drug. […] The present invention thus provides a pharmaceutical composition which achieves higher bioavailability of the drug substance.

CNc1cc2[nH]c(=O)n(-c3ccc(NC(=O)NS(=O)(=O)c4ccc(Cl)s4)cc3)c(=O)c2cc1F [compound of formula (II), elinogrel]
final pH measured of the supernatant ([1]; FaSSIF pH 6.5-1w): 6.42 | final pH measured of the supernatant ([1]; FeSSIF pH 5.0-1w): 4.97 | final pH measured of the supernatant ([1]; Na Phosphate pH 6.8): 6.80 | final pH measured of the supernatant ([1]; Na-Acetate pH 4.5): 4.53 | final pH measured of the supernatant ([1]; SGF pH 2.1): 2.21 | solubility at 72 h ([1]; aqueous buffer, Na Phosphate pH 6.8, mean N = 2): 11.3 µg/mL | solubility at 72 h ([1]; aqueous buffer, Na-Acetate pH 4.5, mean N = 2): 0.89 µg/mL | solubility at 72 h ([1]; simulated gastric fluid, SGF pH 2.1, mean N = 2): 0.48 µg/mL | solubility at 72 h ([1]; FaSSIF pH 6.5-1w, mean N = 2): 25.2 µg/mL | solubility at 72 h ([1]; FeSSIF pH 5.0-1w, mean N = 2): 6 µg/mL | solubility kinetic ([2]; kinetic from dmso stock, CheqSol): 4.17 µg/mL | ratio super saturation ([2]; listed as Free acid): 179 | ratio super saturation ([2]; listed as free acid of formula (II)): 178 | solubility ([2]; thermodynamic from solid, CheqSol): 0.0234 µg/mL | stable super-saturation ([3]; PVP K90 to drug 1:1 by weight, pH>6.0, for 66 hours): 17-86 fold | concentration in solution with PVP ([3]; after 67 h with PVP, pH 7.2): 860 µg/mL | solubility ([3]; aqueous buffer, pH 6.0, read-out: solubility measured by Sirius CheqSol): 9.9 µg/mL | solubility at 66 h ([3]; pH 7.2, aqueous buffer): ~170 µg/mL
